Results as given in patent US7304050B2, “Antibacterial agents” (Pfizer Inc., priority 2003, dated 2007).
≈ marks a conversion by molar mass, not a printed value.

How the values were obtained:
S pyogenes C203 = assay: Antibacterial assay (Test A), microtitration MIC, Gram positive; type: cell-based; conditions: Gram Positive Bacteria, strain C203; for MIC: read-out: Minimum Inhibitory Concentrations S pyogenes C203
Experimental: (§1) The compounds of the present invention were tested against an assortment of Gram-negative and Gram-positive organisms using standard microtitration techniques (Cohen et. al., Antimicrob., 1985;28:766;Heifetz, et. al., Antimicrob., 1974;6: 124).

S. aureus UC-76 = assay: as above; type: cell-based; conditions: Gram Positive Bacteria, strain UC-76; for MIC: Staphylococcus aureus, UC76, read-out: Minimum Inhibitory Concentrations S. aureus UC-76
Experimental: as §1

E. faecalis MGH-2 = assay: as above; type: cell-based; conditions: Gram Positive Bacteria, strain MGH-2; for MIC: Enterococcus faecalis, MGH2, read-out: Minimum Inhibitory Concentrations E. faecalis MGH-2
Experimental: as §1

M. catarrhalis BC3534 = assay: Antibacterial assay (Test A), microtitration MIC, Gram negative; type: cell-based; conditions: Gram Negative Bacteria, strain BC3534; for MIC: Moraxella catarrhalis, read-out: Minimum Inhibitory Concentrations M. catarrhalis BC3534
Experimental: as §1

E. coli Tol C = assay: as above; type: cell-based; conditions: for MIC: Escherichia coli, read-out: Minimum Inhibitory Concentrations E. coli Tol C
Experimental: as §1

H. influenzae HI3542 = assay: as above; type: cell-based; conditions: Gram Negative Bacteria, strain HI3542; for MIC: Haemophilus influenzae, read-out: Minimum Inhibitory Concentrations H. influenzae HI3542
Experimental: as §1

[1] = tested on: E. coli transcription and translation (TnT); type: biochemical

Compound	MIC (S pyogenes C203) [µg/mL]	MIC (S. aureus UC-76) [µg/mL]	MIC (E. faecalis MGH-2) [µg/mL]	MIC (M. catarrhalis BC3534) [µg/mL]	MIC (E. coli Tol C) [µg/mL]	MIC (H. influenzae HI3542) [µg/mL]	Inhibitory concentration in E. coli cell-free transcription/translation (TnT) assay [1] [µg/mL]	Minimum Inhibitory Concentrations S pyogenes C203 (S pyogenes C203) [µg/mL]	Minimum Inhibitory Concentrations S. aureus UC-76 (S. aureus UC-76) [µg/mL]	Minimum Inhibitory Concentrations E. faecalis MGH-2 (E. faecalis MGH-2) [µg/mL]	Minimum Inhibitory Concentrations M. catarrhalis BC3534 (M. catarrhalis BC3534) [µg/mL]	Minimum Inhibitory Concentrations E. coli Tol C (E. coli Tol C; Gram Negative Bacteria, strain Tol C) [µg/mL]	Minimum Inhibitory Concentrations H. influenzae HI3542 (H. influenzae HI3542) [µg/mL]
CCn1cc(C(=O)O)c(=O)c2cc(F)c(N3CCCc4cc(N5C[C@H](CNC(C)=O)OC5=O)ccc4C3)nc21 [Example 17, 7-{7-[5-(Acetylamino-methyl)-2-oxo-oxazolidin-3-yl]-1,3,4,5-tetrahydro-benzo[c]azepin-2-yl}-1-ethyl-6-fluoro-4-oxo-1,4-dihydro-[1,8]naphthyridine-3-carboxylic Acid]	64 (≈ 119 µM)	64 (≈ 119 µM)	64 (≈ 119 µM)	64 (≈ 119 µM)	64 (≈ 119 µM)	0.5 (≈ 0.93 µM)	–	–	–	–	–	–	–
CC(=O)NC[C@H]1CN(c2ccc3c(c2)CCN(c2c(F)cc4c(=O)c(C(=O)O)cn(C5CC5)c4c2F)CC3)C(=O)O1 [Example 12, 7-{7-[5-(Acetylamino-methyl)-2-oxo-oxazolidin-3-yl]-1,2,4,5-tetrahydro-benzo[d]azepin-3-yl}-1-cyclopropyl-6,8-difluoro-4-oxo-1,4-dihydro-quinoline-3-carboxylic Acid]	1 (≈ 1.77 µM)	0.25 (≈ 0.441 µM)	1 (≈ 1.77 µM)	0.25 (≈ 0.441 µM)	4 (≈ 7.06 µM)	0.06 (≈ 0.106 µM)	9.3	–	–	–	–	–	–
COc1c(N2CCCc3cc(N4C[C@H](CNC(C)=O)OC4=O)ccc3C2)c(F)cc2c(=O)c(C(=O)O)cn(C3CC3)c12 (stereo in doubt) [Example 4, 7-{7-[5-(Acetylamino-methyl)-2-oxo-oxazolidin-3-yl]-1,3,4,5-tetrahydro-benzo[c]azepin-2-yl}-1-cyclopropyl-6-fluoro-8-methoxy-4-oxo-1,4-dihydro-quinoline-3-carboxylic Acid]	1 (≈ 1.73 µM)	0.06 (≈ 0.104 µM)	1 (≈ 1.73 µM)	0.5 (≈ 0.864 µM)	2 (≈ 3.46 µM)	0.06 (≈ 0.104 µM)	4.0	–	–	–	–	–	–
CC(=O)NC[C@H]1CN(c2ccc3c(c2)CCCN(c2cc4c(c(C)c2F)c(=O)c(C(=O)O)cn4C2CC2)C3)C(=O)O1 [Example 3, 7-{7-[5-(Acetylamino-methyl)-2-oxo-oxazolidin-3-yl]-1,3,4,5-tetrahydro-benzo[c]azepin-2-yl}-1-cyclopropyl-6-fluoro-5-methyl-4-oxo-1,4-dihydro-quinoline-3-carboxylic Acid]	16 (≈ 28.4 µM)	1 (≈ 1.78 µM)	32 (≈ 56.9 µM)	16 (≈ 28.4 µM)	32 (≈ 56.9 µM)	0.06 (≈ 0.107 µM)	–	–	–	–	–	–	–
7-{7-[5-(Acetylamino-methyl)-2-oxo-oxazolidin-3-yl]-1,3,4,5-tetrahydro-benzo[c]azepin-2-yl}-1-cyclopropyl-8-difluoromethoxy-6-fluoro-4-oxo-1,4-dihydro-[1,8]naphthyridine-3-carboxylic Acid [Example 18]	–	–	–	–	–	–	–	0.06	1	8	2	16	0.06
CC(=O)NC[C@H]1CN(c2ccc3c(c2)CCCN(c2cc4c(cc2F)c(=O)c(C(=O)O)cn4C2CC2)C3)C(=O)O1 [Example 16, 7-{7-[5-(Acetylamino-methyl)-2-oxo-oxazolidin-3-yl]-1,3,4,5-tetrahydro-benzo[c]azepin-2-yl}-1-cyclopropyl-6-fluoro-4-oxo-1,4-dihydro-quinolne-3-carboxylic Acid]	4 (≈ 7.29 µM)	8 (≈ 14.6 µM)	32 (≈ 58.3 µM)	16 (≈ 29.2 µM)	64 (≈ 117 µM)	0.125 (≈ 0.228 µM)	10	–	–	–	–	–	–
CC(=O)NC[C@H]1CN(c2ccc3c(c2)CCN(c2nc4c(cc2F)c(=O)c(C(=O)O)cn4-c2ccc(F)cc2F)CC3)C(=O)O1 [Example 8, 7-{7-[5-(Acetylamino-methyl)-2-oxo-oxazolidin-3-yl]-1,2,4,5-tetrahydro-benzo[d]azepin-3-yl}-1-(2,4-difluoro-phenyl)-6-fluoro-4-oxo-1,4-dihydro-[1,8]naphthyridine-3-carboxylic Acid]	8 (≈ 12.9 µM)	0.5 (≈ 0.804 µM)	16 (≈ 25.7 µM)	2 (≈ 3.22 µM)	2 (≈ 3.22 µM)	0.06 (≈ 0.0965 µM)	23.0	–	–	–	–	–	–
COc1c(N2CCc3ccc(N4C[C@H](CNC(C)=O)OC4=O)cc3CC2)c(F)c(C)c2c(=O)c(C(=O)O)cn(C3CC3)c12 [Example 6, 7-{7-[5-(Acetylamino-methyl)-2-oxo-oxazolidin-3-yl]-1,2,4,5-tetrahydro-benzo[d]azepin-3-yl}-1-cyclopropyl-6-fluoro-8-methoxy-5-methyl-4-oxo-1,4-dihydro-quinoline-3-carboxylic Acid]	0.25 (≈ 0.422 µM)	0.06 (≈ 0.101 µM)	0.25 (≈ 0.422 µM)	0.13 (≈ 0.219 µM)	2 (≈ 3.37 µM)	0.06 (≈ 0.101 µM)	9.6	–	–	–	–	–	–
CC(=O)NC[C@H]1CN(c2ccc3c(c2)CCCN(c2c(F)cc4c(=O)c(C(=O)O)cn5c4c2OCC5C)C3)C(=O)O1 (some centres unmarked) [Example 5, 9-{7-[5-(Acetylamino-methyl)-2-oxo-oxazolidin-3-yl]-1,3,4,5-tetrahydro-benzo[c]azepin-2-yl}-8-fluoro-3-methyl-6-oxo-2,3-dihydro-6 H-1-oxa-3a-aza-phenalene-5-carboxylic Acid]	8 (≈ 14.2 µM)	1 (≈ 1.77 µM)	32 (≈ 56.7 µM)	2 (≈ 3.54 µM)	8 (≈ 14.2 µM)	0.06 (≈ 0.106 µM)	22.4	–	–	–	–	–	–
COc1c(N2CCc3ccc(N4C[C@H](CNC(C)=O)OC4=O)cc3CC2)c(F)cc2c(=O)c(C(=O)O)cn(C3CC3)c12 [Example 7, 7-{7-[5-(Acetylamino-methyl)-2-oxo-oxazolidin-3-yl]-1,2,4,5-tetrahydro-benzo[d]azepin-3-yl}-1-cyclopropyl-6-fluoro-8-methoxy-4-oxo-1,4-dihydro-quinoline-3-carboxylic Acid]	1 (≈ 1.73 µM)	0.06 (≈ 0.104 µM)	0.5 (≈ 0.864 µM)	0.25 (≈ 0.432 µM)	2 (≈ 3.46 µM)	0.06 (≈ 0.104 µM)	11.8	–	–	–	–	–	–
CC(=O)NC[C@H]1CN(c2ccc3c(c2)CCCN(c2c(F)cc4c(=O)c(C(=O)O)cn(C5CC5)c4c2Cl)C3)C(=O)O1 [Example 1, 7-{7-[5-(Acetylamino-methyl)-2-oxo-oxazolidin-3-yl]-1,3,4,5-tetrahydro-benzo[c]azepin-2-yl}-8-chloro-1-cyclopropyl-6-fluoro-4-oxo-1,4-dihydro-quinoline-3-carboxylic Acid]	2 (≈ 3.43 µM)	0.06 (≈ 0.103 µM)	1 (≈ 1.72 µM)	0.25 (≈ 0.429 µM)	2 (≈ 3.43 µM)	0.06 (≈ 0.103 µM)	9.4	–	–	–	–	–	–
CC(=O)NC[C@H]1CN(c2ccc3c(c2)CCCN(c2nc4c(cc2F)c(=O)c(C(=O)O)cn4C2CC2)C3)C(=O)O1 (stereo in doubt) [Example 15, 7-{7-[5-(Acetylamino-methyl)-2-oxo-oxazolidin-3-yl]-1,3,4,5-tetrahydro-benzo[c]azepin-2-yl}-1-cyclopropyl-6-fluoro-4-oxo-1,4-dihydro-[1,8]naphthyridine-3-carboxylic Acid]	4 (≈ 7.28 µM)	2 (≈ 3.64 µM)	4 (≈ 7.28 µM)	4 (≈ 7.28 µM)	4 (≈ 7.28 µM)	0.06 (≈ 0.109 µM)	–	–	–	–	–	–	–
